In patent US9950044B2, “Treatment of pulmonary vascular remodeling with neprilysin” (THE REGENTS OF THE UNIVERSITY OF COLORADO, A BODY CORPORATE, priority 2010, dated 2018):
One block for each molecule: values may come before it.

What was measured:
[1] = biological target: T1, NEP in human PA SMCs (Homo sapiens, UniProt P08473); assay: NEP catalytic activity in human PA SMCs (fluorometric); type: cell-based; details: for prevention of H2O2-induced decreases in PA SMC NEP activity: antioxidant added 0.5 h before 4 h H2O2 (100 μM), MnTMPyp 20 μM, PEG-catalase 40 units/ml
T1 construct: host or cells: primary human PA SMCs, passages 6-10
Procedure: (§1) Lung samples ([…]) or PA SMCs were homogenized in 0.5 ml 20 mM MES, pH 6.5, containing protease inhibitors, and for PA SMCs, 0.5% CHAPS. After centrifugation (10,000×g, 10 min), supernatant was stored at −80° C. NEP activity was measured as described (Dempsey et al., 2009). DPPIV activity was measured by DPPIV-Glo Protease Assay (Promega). Western analyses (Dempsey et al., 2009) with anti-human NEP (56C6, Neomarkers) were assessed by densitometry.
(§2) PA SMCs were isolated from the main PA of ‘normal’ human tissue donors (Clonetics®, Basel, Switzerland, α-SM actin positive, Factor VIII negative). Passages 6-10 were maintained in SmBM® (5% FBS), at 37° C., and used for experimentation. […] The antioxidants Tiron (2.5 mM; Sigma) (Taiwo, 2008), MnTMPyp (an SOD/catalase mimetic (Day et al., 1997), 20 μM; Calbiochem), or polyethylene glycol (PEG) conjugated catalase Beckman et al., 1988) (40 units/ml; Sigma), or the protein degradation inhibitors (Folimycin Huss and Wieczorek, 2009) for lysosomes, 50 nM; Clastolactacystin β-lactone (Dick et al., 1996) for proteasomes, 1 μM; Calbiochem) were added 0.5 or 2 h, respectively, before exposures.

[2] = system: NEP+/+ PASMCs; assay: Migration of NEP+/+ PASMCs (scratch assay); type: cell-based, mouse; details: wild-type PASMCs, 48 h treatment; phosphoramidon 10 μMole/L or NEP siRNA 10 nMole/L; serum 0.2%, PDGF 10 ng/ml
Procedure: (§3) Mice were anesthetized with sodium pentobarbital (100 mg/kg i.p.). Proximal medial tissue was micro dissected from individual age matched 13-17 wk old NEP+/+ and NEP−/− littermate mice. Tissue was digested with […] and cells were grown in DMEM-F-12 medium containing 10% fetal bovine serum (FBS) as described (Petkov et al., 2003). PASMCs were characterized by light microscopic appearance, growth characteristics, and stained for α-SM-actin, SM-myosin, Factor VIII and LDL between passage 3 and 6. PASMCs were used for studies between passage 6 and 13.
Briefly, PASMCs were grown to confluence on 60 mm plates (Hamidi et al., 2008). The cells were serum starved in DMEM-F-12 medium with 0.2% serum for 24 h, and scraped with a sterile P200 pipette tip to generate a cell-free zone. PASMCs were then rinsed with medium and incubated with either 0.2% serum or 10 ng/ml PDGF-BB and cells that migrated into the scratch were visualized by light microscopic imaging. Quantitation of migration was done by counting the number of PASMCs in a 5 cm^2 area of the scratch. […]
Migration was determined by a modified Boyden chamber assay using a polycarbonate filter with […] pore diameter obtained from Neuroprobe (Gaithersburg, Md.) (Said et al., 2007). […] The membranes were examined under a microscope and the cells that migrated to the lower surface were counted (five random 20× fields/well).

[3] = system: NEP+/+ PASMCs; assay: Proliferation of NEP+/+ PASMCs (3H-thymidine incorporation); type: cell-based, mouse; details: wild-type PASMCs, 48 h treatment; phosphoramidon 10 μMole/L or NEP siRNA 10 nMole/L; serum 0.2%, PDGF 10 ng/ml
Procedure: as §3
The effects of growth factors and neuropeptides on DNA synthesis were evaluated as previously reported (Petkov et al., 2003). SMCs were grown in DMEM containing 10% FBS in 24-well plates for about 16 hr. PASMCs were then incubated in DMEM supplemented with 0.2% FBS for 24 hr to make them quiescent. […] [^3H]-thymidine obtained from Perkin Elmer (Waltham, Mass.) at 1 mCi/ml was added for the last 6 hr. After labeling was completed, the cells were washed twice with ice-cold PBS, and proteins were precipitated with 5% perchloric acid. The precipitate was dissolved with 0.5N NaOH and SDS and radioactivity was measured using a liquid scintillation counter made by Beckman Coulter, Inc. (Brea, Calif.).

[4] = system: SM-contractile proteins (α-SM-actin, SM-myosin, SM-22, calponin); assay: SM-contractile protein expression in PASMCs (Western blotting); type: cell-based, mouse
Procedure: Cell lysates were prepared in immunoprecipitation buffer (20 mM Tris HCl (pH 7.5), 150 mM NaCl, 1 mM EDTA, 10% glycerol, 1% Nonidet P-40; 1 mM dithiothreitol, 10 mM NaF, 1 mM sodium orthovanadate, 10 μg/ml leupeptin, 10 μg/ml aprotinin, 10 μg/ml pepstatin A, and 1 mM phenylmethylsulfonyl fluoride) (Petkov et al., 2003). Cells were scraped from the plates, lysed on ice for 30 min. Cellular debris was eliminated by centrifugation for 10 min at 10,000 rpm. The protein concentration was determined by the BCA protein Assay®. Proteins (20-100 μg) were separated on SDS-PAGE and transferred to nitrocellulose membranes obtained from GE Healthcare, (Piscataway, N.J.). Membranes were blocked in PBS containing 0.1% Tween-20 and 1% BSA for 1 h at room temperature. Membranes were incubated with primary antibodies overnight at 4° C., and with secondary antibodies for 1 h at room temperature. All antibodies were diluted in PBS containing 0.1% Tween 20 and 1% BSA, and ECL reagent obtained from Perkin Elmer (Waltham, Mass.) was used for immunodetection. GAPDH was used as a loading control.
A Bio-Rad gel scanner and densitometer (Gel DocXR with Quantity 1 program) were used to assess the intensity of the bands obtained by Western blots. […] The arbitrary units obtained were normalized to GAPDH and the ratios for NEP+/+ to NEP−/− PASMCs were calculated. […]

[5] = biological target: T2, NEP activity in wild-type cells (Mus musculus, UniProt Q61391); details: phosphoramidon 10 μmole/liter; cited from earlier work
T2 construct: endogenous in cells; host or cells: wild-type (NEP+/+) mouse PASMCs
T2 sequence (Q61391 1-750): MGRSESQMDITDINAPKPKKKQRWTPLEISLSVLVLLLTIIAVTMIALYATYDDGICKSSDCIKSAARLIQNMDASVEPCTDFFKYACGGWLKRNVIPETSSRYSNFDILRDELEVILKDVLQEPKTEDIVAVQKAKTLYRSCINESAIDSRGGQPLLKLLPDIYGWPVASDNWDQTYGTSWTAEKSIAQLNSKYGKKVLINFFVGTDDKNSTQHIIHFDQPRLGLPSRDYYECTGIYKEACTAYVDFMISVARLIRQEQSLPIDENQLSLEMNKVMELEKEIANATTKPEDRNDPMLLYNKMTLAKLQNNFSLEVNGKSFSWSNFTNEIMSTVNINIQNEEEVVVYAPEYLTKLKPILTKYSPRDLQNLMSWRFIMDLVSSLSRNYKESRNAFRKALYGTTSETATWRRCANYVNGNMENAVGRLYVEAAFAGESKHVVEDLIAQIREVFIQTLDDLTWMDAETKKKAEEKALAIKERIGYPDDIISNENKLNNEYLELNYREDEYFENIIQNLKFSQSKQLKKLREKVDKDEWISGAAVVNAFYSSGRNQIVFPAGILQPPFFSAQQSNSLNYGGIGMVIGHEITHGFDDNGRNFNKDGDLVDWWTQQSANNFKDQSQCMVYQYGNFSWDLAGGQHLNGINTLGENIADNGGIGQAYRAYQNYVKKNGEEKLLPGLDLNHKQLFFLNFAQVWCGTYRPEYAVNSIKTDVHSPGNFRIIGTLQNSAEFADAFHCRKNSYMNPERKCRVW

[6] = biological target: NEP activity in ‘Control’ human lung homogenates (Homo sapiens, UniProt P08473); assay: biochemical; details: read-out: inhibition of NEP activity in ‘Control’ crude lung homogenates
Procedure: as §1

[7] = biological target: recombinant human NEP (Homo sapiens, UniProt P08473); assay: biochemical; details: read-out: inhibition of residual rNEP activity
Procedure: as §1

[8] = system: NEP mRNA in human PA SMCs; assay: NEP mRNA levels in human PA SMCs (qRT-PCR); type: cell-based
Procedure: as §2

[9] = system: NEP KO PA SMCs; details: added to the cell culture media or lentiviral transduction; cited from earlier work

T1 sequence (P08473 whole entry): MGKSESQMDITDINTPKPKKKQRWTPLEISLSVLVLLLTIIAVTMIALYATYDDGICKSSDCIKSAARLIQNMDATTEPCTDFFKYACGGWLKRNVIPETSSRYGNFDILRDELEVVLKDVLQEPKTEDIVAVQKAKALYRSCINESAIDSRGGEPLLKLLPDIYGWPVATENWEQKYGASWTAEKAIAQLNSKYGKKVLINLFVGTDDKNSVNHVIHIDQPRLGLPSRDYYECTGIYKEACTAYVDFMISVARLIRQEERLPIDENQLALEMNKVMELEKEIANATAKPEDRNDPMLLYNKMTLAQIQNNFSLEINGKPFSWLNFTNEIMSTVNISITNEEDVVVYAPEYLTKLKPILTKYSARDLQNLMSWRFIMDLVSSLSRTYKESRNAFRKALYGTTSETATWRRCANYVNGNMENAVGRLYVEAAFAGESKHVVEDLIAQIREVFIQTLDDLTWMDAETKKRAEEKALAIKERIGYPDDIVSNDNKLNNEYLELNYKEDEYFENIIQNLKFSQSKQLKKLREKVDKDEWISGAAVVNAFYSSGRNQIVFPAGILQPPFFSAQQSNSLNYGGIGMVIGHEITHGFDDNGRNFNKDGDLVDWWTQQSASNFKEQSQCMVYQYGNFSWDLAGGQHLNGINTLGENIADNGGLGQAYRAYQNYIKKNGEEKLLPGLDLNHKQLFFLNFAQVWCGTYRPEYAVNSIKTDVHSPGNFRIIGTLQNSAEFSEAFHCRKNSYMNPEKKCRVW
Chain of NEP activity in ‘Control’ human lung homogenates (P08473 whole entry): as above
Chain of recombinant human NEP (P08473 whole entry): as above

Molecule: MnTMPyp
- prevention of H2O2-induced decreases in PA SMC NEP activity ([1]; Tiron 2.5 mM): prevented

Molecule: CC(C)C[C@H](NP(=O)(O)O[C@@H]1O[C@@H](C)[C@H](O)[C@@H](O)[C@H]1O)C(=O)N[C@@H](Cc1c[nH]c2ccccc12)C(=O)O [phosphoramidon]
- migration in response to serum and PDGF [2]: increased
- proliferation in response to serum and PDGF [3]: increased
- expression of SM-contractile proteins in NEP+/+ cells ([4]; phosphoramidon 10 μMole/L or NEP siRNA 10 nMole/L): decrease
- inhibition of NEP activity in wild-type cells [5]: completely inhibits

- prevention of decreases in NEP activity due to CSE, hypoxia or H2O2 ([1]; Tiron 2.5 mM, 0.5 h before and throughout 4 h exposure): prevented
- NEP activity under normoxia with Tiron vs normoxia alone ([1]; Tiron 2.5 mM, normoxia): did not differ significantly
- prevention of H2O2-induced decreases in PA SMC NEP activity ([1]; Tiron 2.5 mM): prevented
Molecule: O=S(=O)(O)c1cc(O)c(O)c(S(=O)(=O)O)c1 [Tiron]

- inhibition at 100 µM [6]: 38%
- inhibition at 100 µM [7]: 68%
- NEP activity after exposure, without Tiron ([1]; 4 h exposure, CSE 5 μg/ml, H2O2 100 μM): significantly decreased
Molecule: OO [H2O2, hydrogen peroxide]
- effect on NEP mRNA expression ([8]; 100 μM H2O2, 48 h): did not significantly decrease
- transient decrease in NEP mRNA ([8]; after 4 h exposure to H2O2, preliminary experiments): 40%

- prevention of H2O2-induced decreases in PA SMC NEP activity ([1]; Tiron 2.5 mM): prevented
B1: PEG-catalase: polyethylene glycol (PEG) conjugated catalase, antioxidant (conjugate, UniProt P00432 2-527, looked up)
Catalase: ADNRDPASDQMKHWKEQRAAQKPDVLTTGGGNPVGDKLNSLTVGPRGPLLVQDVVFTDEMAHFDRERIPERVVHAKGAGAFGYFEVTHDITRYSKAKVFEHIGKRTPIAVRFSTVAGESGSADTVRDPRGFAVKFYTEDGNWDLVGNNTPIFFIRDALLFPSFIHSQKRNPQTHLKDPDMVWDFWSLRPESLHQVSFLFSDRGIPDGHRHMNGYGSHTFKLVNANGEAVYCKFHYKTDQGIKNLSVEDAARLAHEDPDYGLRDLFNAIATGNYPSWTLYIQVMTFSEAEIFPFNPFDLTKVWPHGDYPLIPVGKLVLNRNPVNYFAEVEQLAFDPSNMPPGIEPSPDKMLQGRLFAYPDTHRHRLGPNYLQIPVNCPYRARVANYQRDGPMCMMDNQGGAPNYYPNSFSAPEHQPSALEHRTHFSGDVQRFNSANDDNVTQVRTFYLKVLNEEQRKRLCENIAGHLKDAQLFIQKKAVKNFSDVHPEYGSRIQALLDKYNEEKPKNAVHTYVQHGSHLSAREKANL
modifications: PEG conjugated
notes: polyethylene glycol (PEG) conjugated catalase, antioxidant

B2: rNEP: recombinant human neprilysin protein (protein, UniProt P08473 2-750, looked up)
Neprilysin: GKSESQMDITDINTPKPKKKQRWTPLEISLSVLVLLLTIIAVTMIALYATYDDGICKSSDCIKSAARLIQNMDATTEPCTDFFKYACGGWLKRNVIPETSSRYGNFDILRDELEVVLKDVLQEPKTEDIVAVQKAKALYRSCINESAIDSRGGEPLLKLLPDIYGWPVATENWEQKYGASWTAEKAIAQLNSKYGKKVLINLFVGTDDKNSVNHVIHIDQPRLGLPSRDYYECTGIYKEACTAYVDFMISVARLIRQEERLPIDENQLALEMNKVMELEKEIANATAKPEDRNDPMLLYNKMTLAQIQNNFSLEINGKPFSWLNFTNEIMSTVNISITNEEDVVVYAPEYLTKLKPILTKYSARDLQNLMSWRFIMDLVSSLSRTYKESRNAFRKALYGTTSETATWRRCANYVNGNMENAVGRLYVEAAFAGESKHVVEDLIAQIREVFIQTLDDLTWMDAETKKRAEEKALAIKERIGYPDDIVSNDNKLNNEYLELNYKEDEYFENIIQNLKFSQSKQLKKLREKVDKDEWISGAAVVNAFYSSGRNQIVFPAGILQPPFFSAQQSNSLNYGGIGMVIGHEITHGFDDNGRNFNKDGDLVDWWTQQSASNFKEQSQCMVYQYGNFSWDLAGGQHLNGINTLGENIADNGGLGQAYRAYQNYIKKNGEEKLLPGLDLNHKQLFFLNFAQVWCGTYRPEYAVNSIKTDVHSPGNFRIIGTLQNSAEFSEAFHCRKNSYMNPEKKCRVW
- levels of SM-markers (α-SM-actin, SM-22, calponin) in null PASMCs ([4]; NEP−/− PASMC, lentiviral human NEP construct or rNEP 10 μg/ml): restored
- proliferation of the NEP KO PA SMCs [9]: dose-dependent inhibition
